Results: patent US9346818B2 (priority 2012, dated 2016)
Entries after “also recorded” stand apart in the source; their conditions may differ. Read-outs that look alike come from different tables or passages of the source.

Experiments:
[1] = system: learning and memory disorder of mice induced by scopolamine; assay: Morris water maze test, senile dementia mice model induced by scopolamine; format: in vivo; conditions: for latent period day 1 / latent period day 2 / latent period day 3 / latent period day 4 / latent period day 5 / times of crossing platform: Table 4, 5 mg/kg intragastric, scopolamine 1 mg/kg
malonaldehyde (MDA) = assay: Biochemical indicators of brain tissues (MDA assay) in scopolamine mice; format: in vivo; conditions: 5 mg/kg; for MDA(nmol/mgprot): brain tissue homogenate
Description: After the behavior test was complete, the mice were sacrificed, brain tissues were collected (operated on an ice plate) and prepared into 10% of tissue homogenate with pre-cooled physiological saline, centrifuged (3000 rpm, 10 min), and the supernatant was subjected to malonaldehyde (MDA) assay following the kits.

acetylcholinesterase = acetylcholinesterase (Homo sapiens (Human), UniProt P22303); assay: biochemical; format: biochemical; conditions: for potency on acetylcholinesterase compared with positive control drug donepezil hydrochloride: enzymology level; for IC50: read-out: IC50 (nM), inhibition activity on acetylcholinesterase
[2] = rat, in vivo, po, 5 mg/kg
Description: 0.3 ml of whole blood was collected at corresponding time point, anticoagulating with heparin, centrifuged at 4000 rpm for 10 min, the plasma was separated, 50 μL the plasma sample of rats was collected, 100 μL acetonitrile (containing 0.1% formic acid) was added, mixed under vortex for 1 min, centrifuged (12000 rpm) for 10 min, the supernatant was collected, analyzed with liquid chromatography-mass spectrometer, the area of peaks were recorded and used for the calculation of blood drug concentration, and the drug-time curve was plotted.

in vivo = conditions: mouse, in vivo
Description: (§1) Firstly, preliminary tests were performed, in order to determine the concentration of each compound, with just 0% mortality or just 100% mortality, before starting the formal tests. The animals were divided into groups by weight, various dosages of drugs were administered between 0%-100%. Dosage volume: 10 ml/kg. Dosage manner: intravenous injection or intragastric administration.
(§2) The animals were divided into 6 groups, with 5 animals per group.
(§3) The animals were divided into 6 groups, with 5 animals per group. […] Each animal was fasted 12 h before administration.
(§4) The animals were divided into 5 groups, with 5 animals per group.
(§5) The animals were divided into 5 groups, with 5 animals per group. […] Each animal was fasted 12 h before administration.
(§6) The toxic reaction and death of the animals after administration were observed, and mortality was counted. The results were analyzed with LD50 data processing software.

white mice = assay: in vivo; conditions: for Mortality (%) / Number of death: 5 animals
Description: as §1, §2, §3, §4, §5, §6

[3] = Intragastric administration 122.88 mg/kg
[4] = Intragastric administration 153.60 mg/kg
[5] = Intragastric administration 240.00 mg/kg
[6] = Intragastric administration 300.00 mg/kg
[7] = Intravenous injection 16.40 mg/kg
[8] = Intravenous injection 18.23 mg/kg
[9] = Intravenous injection 20.25 mg/kg
[10] = Intravenous injection 23.04 mg/kg
[11] = Intravenous injection 25.60 mg/kg

Chain of acetylcholinesterase (P22303 32-614, species assumed): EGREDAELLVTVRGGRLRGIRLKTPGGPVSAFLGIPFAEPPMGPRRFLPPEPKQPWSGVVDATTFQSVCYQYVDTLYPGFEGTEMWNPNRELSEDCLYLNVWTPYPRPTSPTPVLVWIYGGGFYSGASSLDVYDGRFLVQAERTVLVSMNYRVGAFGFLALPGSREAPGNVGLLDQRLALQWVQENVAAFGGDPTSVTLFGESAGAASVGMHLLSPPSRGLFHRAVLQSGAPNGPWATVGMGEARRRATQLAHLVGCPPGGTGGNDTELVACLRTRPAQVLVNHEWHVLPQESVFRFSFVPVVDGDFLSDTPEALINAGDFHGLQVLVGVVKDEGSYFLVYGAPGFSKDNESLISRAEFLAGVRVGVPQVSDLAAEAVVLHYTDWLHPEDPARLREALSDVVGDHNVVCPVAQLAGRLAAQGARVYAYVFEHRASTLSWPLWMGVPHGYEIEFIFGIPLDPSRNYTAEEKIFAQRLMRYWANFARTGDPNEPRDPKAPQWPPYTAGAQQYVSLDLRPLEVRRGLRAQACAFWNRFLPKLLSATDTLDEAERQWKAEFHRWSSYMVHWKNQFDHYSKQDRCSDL

## Cc1ccccc1CN1CCC(CCN2C(=O)c3cc4c(cc3C23CC3)OCO4)CC1 [Compound I-23, 6-[2-[1-(o-tolylmethyl)-4-piperidyl]ethyl]spiro[[1,3]dioxolo[4,5-f]isoindole-7,1′-cyclopropane]-5-one]
[1]
  latent period day 1: 57.8 ± 5.4 s
  latent period day 2: 57.7 ± 7.1 s
  latent period day 3: 55.5 ± 8.8 s
  latent period day 4: 43.9 ± 14.1 s
  latent period day 5: 51.8 ± 10.9 s
  times of crossing platform: 1.5 ± 1.5
Malonaldehyde (MDA)
  MDA(nmol/mgprot): 6.53 ± 2.3 nmol/mgprot
acetylcholinesterase; in vitro
  potency on acetylcholinesterase compared with positive control drug donepezil hydrochloride: even lower
acetylcholinesterase; modified Ellman method
  IC50: 959 nM

## CC1(C)c2cc3c(cc2C(=O)N1CCC1CCN(Cc2cccc(F)c2)CC1)OCO3 [Compound I-15, 6-[2-[1-[(3-fluorophenyl)methyl]-4-piperidyl]ethyl]-7,7-dimethyl-[1,3]dioxolo[4,5-f]isoindol-5-one]
[1]
  latent period day 1: 60 ± 0 s
  latent period day 2: 58.9 ± 4.4 s
  latent period day 3: 56.5 ± 8.3 s
  latent period day 4: 57.8 ± 5.3 s
  latent period day 5: 51.1 ± 10.9 s
  times of crossing platform: 1.9 ± 1.5
Malonaldehyde (MDA)
  MDA(nmol/mgprot): 7.41 ± 2.1 nmol/mgprot
acetylcholinesterase; in vitro
  potency on acetylcholinesterase compared with positive control drug donepezil hydrochloride: relative low activity
acetylcholinesterase; modified Ellman method
  IC50: > 2000 nM

## O=C1c2cc3c(cc2C2(CC2)N1CCC1CCN(Cc2ccccn2)CC1)OCO3 [Compound I-35, 6-[2-[1-(2-pyridylmethyl)-4-piperidyl]ethyl]spiro[[1,3]dioxolo[4,5-f]isoindole-7,1′-cyclopropane]-5-one phosphate]
[2]
  MRT(0-t): 2.343 ± 0.206
  MRT(0-∞): 2.483 ± 0.265
  t1/2z: 1.965 ± 0.296
acetylcholinesterase; modified Ellman method
  IC50: 601 nM

## Cl.O=C1c2cc3c(cc2C2(CC2)N1CCC1CCN(Cc2ccccc2)CC1)OCO3 [Compound I-34, 6-[2-(1-benzyl-4-piperidyl)ethyl]spiro[[1,3]dioxolo[4,5-f]isoindole-7,1′-cyclopropane]-5-one hydrochloride]
In vivo; iv
  LD50: 20.1 mg/kg
In vivo; po
  LD50: 171 mg/kg
White mice; [3]
  Mortality (%): 0%
  Number of death: 0
White mice; [4]
  Mortality (%): 40%
  Number of death: 2
White mice; [5]
  Mortality (%): 80%
  Number of death: 4
White mice; [6]
  Mortality (%): 100%
  Number of death: 5
White mice; [7]
  Mortality (%): 0%
  Number of death: 0
White mice; [8]
  Mortality (%): 20%
  Number of death: 1
White mice; [9]
  Mortality (%): 60%
  Number of death: 3
White mice; [10]
  Mortality (%): 80%
  Number of death: 4
White mice; [11]
  Mortality (%): 100%
  Number of death: 5
White mice; oral and intravenous
  median lethal dose by oral and intravenous administration, times of those of donepezil hydrochloride: 4-7 times
White mice; preliminary acute toxicity tests
  toxicity compared with donepezil hydrochloride: lower toxicity than donepezil hydrochloride
acetylcholinesterase; in vitro, hydrochloride
  potency on acetylcholinesterase compared with positive control drug donepezil hydrochloride: slightly lower potency than the positive control drug; also recorded: comparable inhibition activity on acetylcholinesterase with donepezil hydrochloride
acetylcholinesterase
  IC50: 197 nM

## CC1(C)c2cc3c(cc2C(=O)N1CCC1CCN(Cc2ccccc2F)CC1)OCO3 [Compound I-14, 6-[2-[1-[(2-fluorophenyl)methyl]-4-piperidyl]ethyl]-7,7-dimethyl-[1,3]dioxolo[4,5-f]isoindol-5-one]
[1]
  latent period day 1: 57.1 ± 7.6 s
  latent period day 2: 60 ± 0 s
  latent period day 3: 60 ± 0 s
  latent period day 4: 54.2 ± 8.9 s
  latent period day 5: 49.9 ± 14.7 s
  times of crossing platform: 1.3 ± 1.8
Malonaldehyde (MDA)
  MDA(nmol/mgprot): 7.36 ± 1.3 nmol/mgprot
acetylcholinesterase; in vitro
  potency on acetylcholinesterase compared with positive control drug donepezil hydrochloride: relative low activity
acetylcholinesterase
  IC50: > 2000 nM

## O=C1c2cc3c(cc2C2(CC2)N1CCC1CCN(Cc2ccccn2)CC1)OCO3 [Compound I-29, 6-[2-[1-(2-pyridylmethyl)-4-piperidyl]ethyl]spiro[[1,3]dioxolo[4,5-f]isoindole-7,1′-cyclopropane]-5-one]
[1]; Morris water maze, in comparison with model group / donepezil hydrochloride group
  effect on learning and memory disorder of mice induced by scopolamine: stronger effects of improving learning and memory
[1]
  latent period day 1: 59.3 ± 2.7 s
  latent period day 2: 54.6 ± 12.5 s
  latent period day 3: 48.0 ± 15.8 s
  latent period day 4: 46.0 ± 16.3 s
  latent period day 5: 40.4 ± 21.6 s
  times of crossing platform: 1.5 ± 1.4
Malonaldehyde (MDA)
  content of MDA in brains / antioxidation effect: significant antioxidation effect
  MDA(nmol/mgprot): 6.66 ± 1.75 nmol/mgprot
acetylcholinesterase; in vitro
  inhibition activity on acetylcholinesterase in vitro relative to donepezil hydrochloride: about 10%
  potency on acetylcholinesterase compared with positive control drug donepezil hydrochloride: even lower
acetylcholinesterase
  IC50: 903 nM
